Laboratory results reported in US11744814B2, “Methods and pharmaceutical preparations for elevating blood hemoglobin and oxygen saturation levels with hydroxycitric acid” (GLYKON TECHNOLOGIES GROUP, LLC, priority 2020, dated 2023).

What was measured:
[1] = target: T1, ATP citrate lyase (Homo sapiens, UniProt P53396); details: background statement; cited from earlier work
T1 sequence (P53396 1-1101): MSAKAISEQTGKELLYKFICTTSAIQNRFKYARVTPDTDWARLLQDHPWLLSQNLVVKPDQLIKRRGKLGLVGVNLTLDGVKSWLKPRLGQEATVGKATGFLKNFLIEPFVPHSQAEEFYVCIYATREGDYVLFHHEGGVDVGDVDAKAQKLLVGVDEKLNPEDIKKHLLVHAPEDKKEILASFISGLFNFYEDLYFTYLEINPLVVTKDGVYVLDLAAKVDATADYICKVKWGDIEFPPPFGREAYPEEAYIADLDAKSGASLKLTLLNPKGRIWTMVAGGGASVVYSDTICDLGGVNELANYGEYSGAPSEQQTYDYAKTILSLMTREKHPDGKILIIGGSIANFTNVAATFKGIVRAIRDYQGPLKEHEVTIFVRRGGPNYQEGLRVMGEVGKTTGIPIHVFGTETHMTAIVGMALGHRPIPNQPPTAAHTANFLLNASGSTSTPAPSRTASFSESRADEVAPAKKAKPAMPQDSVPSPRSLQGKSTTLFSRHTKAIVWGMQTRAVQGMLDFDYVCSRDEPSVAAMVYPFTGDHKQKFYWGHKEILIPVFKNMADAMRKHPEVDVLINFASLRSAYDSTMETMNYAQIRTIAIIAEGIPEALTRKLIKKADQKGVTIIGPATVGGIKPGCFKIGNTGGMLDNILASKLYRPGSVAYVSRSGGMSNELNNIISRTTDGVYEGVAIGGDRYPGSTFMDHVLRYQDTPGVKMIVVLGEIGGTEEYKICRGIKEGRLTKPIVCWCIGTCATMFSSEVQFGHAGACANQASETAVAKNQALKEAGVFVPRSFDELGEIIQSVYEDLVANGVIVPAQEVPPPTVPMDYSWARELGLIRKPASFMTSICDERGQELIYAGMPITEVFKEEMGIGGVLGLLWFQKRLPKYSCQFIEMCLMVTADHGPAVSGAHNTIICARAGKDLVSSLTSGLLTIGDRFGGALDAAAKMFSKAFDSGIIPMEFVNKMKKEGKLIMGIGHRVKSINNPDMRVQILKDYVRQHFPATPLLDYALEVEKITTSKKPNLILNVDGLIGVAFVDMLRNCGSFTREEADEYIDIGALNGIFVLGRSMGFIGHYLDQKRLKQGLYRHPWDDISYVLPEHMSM

[2] = Blood levels of biomolecules before and 90 minutes after the Example 1 formulation; assay type: in vivo, human; details: conclusion over the examples, HCA administration
Description: Subject 5 was a person, weighing approximately 285 pounds and with a normal fasting blood sugar level of 115-120. First, blood was drawn from Subject 5 and levels of various biomolecules were measured. Next, Subject 5 was administered 16.66 ml of the Example 1 formulation on an empty stomach, i.e. wherein with each 16.66 ml the subject received 5,000 mg of the potassium-magnesium (−)-hydroxycitric acid salt, corresponding to 3490 mg of (−)-hydroxycitric acid. 90 minutes after the administration, blood was drawn from Subject 5 and levels of the various biomolecules were remeasured.
Subject 6 was administered 16.66 ml of the Example 1 formulation on an empty stomach, i.e. wherein with each 16.66 ml the subject received 5,000 mg of the potassium-magnesium (−)-hydroxycitric acid salt, corresponding to 3490 mg of (−)-hydroxycitric acid. 90 minutes after the administration, blood was drawn from Subject 6 and levels of the various biomolecules were remeasured.

[3] = fNIRS measurement of blood hemoglobin and oxygen saturation after the Example 1 formulation; assay type: in vivo, human; details: conclusion over the examples, HCA administration
Description: Subjects 1-4 were orally administered the formulation of Example 1. The Subjects were given either one or two administrations of 8.33 ml of the aqueous formulation of Example 1 on an empty stomach, i.e. wherein with each 8.33 ml the subject received 2,500 mg of the potassium-magnesium (−)-hydroxycitric acid salt, corresponding to 1745 mg of (−)-hydroxycitric acid.
fNIRS testing (functional Near Infrared Spectroscopy) was used to measure blood hemoglobin and oxygen saturation. fNIRS can be used to determine real-time peripheral and cerebral hemodynamic responses. For example, relative changes in HbR (deoxygen saturation), HbO (oxygen saturation), and HbT (total hemoglobin concentration), etc. can be determined via application of Modified Beer Lambert Law. HbR, Hb=deoxygen saturation (shown as the thinnest and bottom dashed line in FIG. 1) HbO, HbO2=oxygen saturation (shown as the medium-thickness and middle line in FIG. 1) HbT=total hemoglobin concentration (shown as the darkest, thickest and top line in FIG. 1). On the graphs, time is in seconds.

[4] = test system: intestinal alpha-glucosidase; details: background statement, in vitro; cited from earlier work
[5] = target: T2, pancreatic alpha-amylase (Homo sapiens, UniProt P04746); details: background statement, in vitro; cited from earlier work
T2 sequence (P04746 16-511): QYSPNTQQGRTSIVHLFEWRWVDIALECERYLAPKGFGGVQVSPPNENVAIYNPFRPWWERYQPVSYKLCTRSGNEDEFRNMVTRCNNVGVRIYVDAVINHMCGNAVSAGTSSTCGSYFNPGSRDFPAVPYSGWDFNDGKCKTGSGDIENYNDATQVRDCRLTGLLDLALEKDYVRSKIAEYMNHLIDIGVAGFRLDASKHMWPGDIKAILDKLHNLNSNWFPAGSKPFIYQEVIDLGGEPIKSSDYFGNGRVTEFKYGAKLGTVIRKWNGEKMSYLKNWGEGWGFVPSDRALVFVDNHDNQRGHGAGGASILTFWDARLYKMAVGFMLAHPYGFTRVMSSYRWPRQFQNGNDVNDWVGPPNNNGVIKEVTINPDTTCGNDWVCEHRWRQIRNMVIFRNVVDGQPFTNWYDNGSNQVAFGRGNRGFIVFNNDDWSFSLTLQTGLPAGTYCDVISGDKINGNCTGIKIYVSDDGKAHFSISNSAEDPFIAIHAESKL

| SMILES | inhibition of ATP citrate lyase [1] | cortisol [2] | levels of ketones [2] | triglycerides [2] | glucose ([2]; in some cases transient) | blood hemoglobin [3] | oxygen saturation [3] | inhibition of intestinal alpha-glucosidase [4] | inhibition of pancreatic alpha-amylase [5] |
| --- | --- | --- | --- | --- | --- | --- | --- | --- | --- |
| O=C(O)CC(O)(C(=O)O)C(O)C(=O)O (stereo not drawn) [HCA, 1,2-dihydroxypropane-1,2,3-tricarboxylic acid] | competitive inhibitor | decreased | relatively stable or slightly lower | decreased | increased | increased | increased |  |  |
| O=C(O)C[C@](O)(C(=O)O)[C@H](O)C(=O)O [(2S,3R)-HCA] |  |  |  |  |  |  |  | inhibits | inhibits |
